Literature values as cited in patent US20230279502A1, “IDENTIFICATION OF ESTROGEN RECEPTOR POSITIVE (ER+) BREAST CANCERS THAT WILL NOT DEVELOP TAMOXIFEN RESISTANCE” (Rutgers, The State University of New Jersey, priority 2020, published 2023).

Columns and labels:
human cancer cell lines = details: different human cancer cell lines, based on expression levels of the read-out genes; high AUCs = decreased sensitivity
ER+ breast cancers = details: ER+ breast cancer patients treated with tamoxifen

## CC/C(=C(\c1ccccc1)c1ccc(OCCN(C)C)cc1)c1ccccc1 [tamoxifen]
Human cancer cell lines
  Sensitivity to tamoxifen treatment (area under the dose-response curve): decreased sensitivity
ER+ breast cancers
  Treated patients that develop therapeutic resistance: ~30%
